Laboratory results from patent publication US8309790B2, “Animal models for demyelination disorders” (University of Chicago, priority 2005, dated 2012).

Experiments:
[1] = test system: corpus callosum of double transgenic mice treated with cuprizone; assay: Cuprizone-induced demyelination and remyelination in GFAP/tTA; TRE/IFN-γ double transgenic mice; assay type: in vivo
Description: The effects of IFN-γ on demyelination were evaluated in a cuprizone animal model using transgenic mice that allow for temporally regulated delivery of IFN-γ using the tetracycline controllable system (Lin, et al. (2004) J. Neurosci. 24: 10074-10083). The transgenic mice were generated by mating line 110 GFAP/tTA mice on the C57BL/6 background with line 184 TRE/IFN-γ on the C57BL/6 background to produce GFAP/tTA; TRE/IFN-γ double transgenic mice (Lin, et al. (2004) J. Neurosci. 24: 10074-10083). Transcriptional activation of the TRE/IFN-γ transgene by tTA was repressed in the control (DOX+) mice by adding 0.05 mg/ml doxycycline to the drinking water which was provided ad libitum from the day of conception. The DOX+ double transgenic mice were GFAP/tTA; TRE/IFN-γdouble transgenic animals fed cuprizone chow and never released from the doxycycline solution. DOX− double transgenic mice were GFAP/tTA; TRE/IFN-γdouble transgenic animals fed cuprizone chow and released from doxycycline to induce expression of IFN-γ.
Demyelination was induced in 6-week-old DOX+ and DOX− male mice by feeding the mice a diet of milled mouse chow containing 0.2% cuprizone (Sigma-Aldrich, St. Louis, […].) for up to 6 weeks. Subsequently, both groups of mice were returned to a normal diet for up to 3 weeks to allow remyelination to occur. All animal procedures were conducted in complete compliance with the NIH Guide for the Care and Use of Laboratory Animals and were approved by the Institutional Animal Care and Use Committee of The University of Chicago.
The effects of INF-γ and MBP on demyelination were evaluated as the level of INF-γ and MHC-1, the loss of oligodendrocytes, and the expression of myelin genes.
The expression of IFN-γ in these animals was examined by Enzyme-Linked Immunosorbent Assay (ELISA) analysis as follows. Spinal cord and forebrains were removed, rinsed in ice cold PBS, and immediately homogenized in five volumes of PBS with complete protease cocktail (Roche, Indianapolis, Ind.) using a motorized homogenizer. After incubation on ice for 5 min the extracts were cleared by centrifugation at 14000 rpm for 10 min. The protein content of each extract was determined by the DC protein assay (Bio-Rad, Hercules, Calif.). […]
The effect of INF-γ on the population of oligodendrocytes was evaluated by immunohistochemical analysis of oligodendrocytes using an anti-CC1 antibody (APC7, 1:50; EMD Biosciences, Inc., La Jolla, Calif.) Immunohistochemistry was performed on brain sections obtained from mice that were first anesthetized mice and perfused through the left cardiac ventricle with 4% paraformaldehyde in 0.1 M PBS. […]

[2] = test system: Hippocampal organotypic cultures; assay: Hippocampal organotypic cultures (HOC), in vitro model of myelination, MBP Western blot; assay type: cell-based; settings: 7 days of 100 U/ml IFN-γ exposure
Description: Our hypothesis is that the integrated stress response has the potential to protect oligodendrocytes from the harmful effects of the inflammatory response in patients with multiple sclerosis (MS). […] To test whether agents that prolong eIF2α phosphorylation might provide protection to oligodendrocytes against detrimental inflammatory factors, the effect of Salubrinol (Sal) in the presence of the immune cytokine IFN-γ was tested in an in vitro model of myelination.
HOCs, were prepared and maintained as described previously (Kunkler and Kraig (1997) J Cereb Blood Flow Metab. 17:26-43), and were maintained in vitro for 7 days before use. SAL at various concentrations was combined with 100 U/ml IFN-γ and added to the HOC cultures for 7 days. […] After 7 days of 100 U/ml IFN-γ exposure, the levels of MBP decreased approximately 80% in the HOCs (FIG. 29).

Q: Which remyelinated axons ([1]; DOX− mice, corpus callosum, 8 weeks, EM) does the source give for interferon-γ [IFN-γ] here?
A: 26.9%±7%

Q: And the “expression of myelin genes MBP, PLP and CGT” value ([1]; DOX− mice, corpus callosum, week 6 and week 8)?
A: significantly depressed

Q: What about the “expression of MHC class I (MHC-I) in the corpus callosum, real-time PCR” value ([1]; DOX− mice, during remyelination) of the same substance?
A: significant increase

Q: And the “effect on the initial pathological processes induced by cuprizone exposure” value ([1]; DOX− vs DOX+ mice, up to 5 weeks cuprizone)?
A: does not have a significant effect

Q: And the “decrease of the levels of MBP” value [2]?
A: approximately 80%
